# Reference: patent US20220202940A1, “METHOD OF STABILIZING A DIALYSIS SOLUTION” (Fresenius Medical Care Deutschland GmbH, priority 2018, published 2022)
# Conditions: 0.1 mmol/l orthophosphate added to DUOSOL 4551 after the start of the precipitation, 40° C.
# Description: The pH at which a significant precipitation of calcium carbonate starts is a criterion for the stability of the solution and is subsequently called pHmax. […] The time at which the significant precipitation of calcium carbonate starts is subsequently called tG to represent the “time of germination”.
# The stabilizing effect of a subsequent addition of phosphate or of a phosphate ester to existing dialysis solutions was examined using the rapid degassing method in a carousel setup. THz rapid degassing method in this variant allows an accelerated aging of dialysis solutions by degassing the CO2 from the bicarbonate buffer. The degassing of CO2 that normally occur slowly during the life of the products can be simulated within a few hours with this experiment setup.
# Three separate experiments are carried out for each data point and the mean value is used.
# That is, after a specific time period, 2.5 ml of a parent solution having 100 mmol/l glycerophosphate is added to the flasks containing 250 ml DUOSOL 4551, which results in a concentration of 1.0 mmol/l of glycerophosphate in the flask.
smiles,measurement,value
O=P(O)(O)O [orthophosphate],dissolution of existing calcium carbonate precipitate,not observed
same,effect on precipitation of calcium carbonate,inhibiting effect
